# Measured values as given in patent publication US10287328B2, “Treatment of diabetes, toll-like receptor 4 modulators and methods for using the same” (KeMyth Biotech Co., Ltd., priority 2016, dated 2019).
# Legend:
# [1] = Serum insulin level (sandwich ELISA) in HFD-induced, STZ-injected type 2 diabetic rats; format: in vivo, Sprague-Dawley rats; conditions: STZ-injected HFD-fed rats, 2 mg/kg/3 days i.p. for 30 days, compared to STZ+vehicle
# Procedure: (§1) The Sprague-Dawley rats were allocated to two dietary regimens by feeding either normal or HFD ad libitum, for the initial period of 2 weeks. After 2 weeks of dietary manipulation, the group of rats fed HFD were injected intraperitoneally (i.p.) with a low dose of STZ (35 mg/kg b.w.), while the respective control rats were given vehicle citrate buffer (pH 4.5) in a dose volume of 1 mL/kg, i.p. Seven days after STZ injection, rats were screened for blood glucose levels. Overnight fasted (10-12 hours) animals were given glucose (3 g/kg b.w.) by gastric intubation. After 2 hours of oral administration, blood samples were taken from lateral tail vein, left to coagulate and centrifuged; then serum glucose concentration was measured. Rats having serum glucose ≥200 mg/dL after 2 hours of glucose intake were considered diabetic and selected for further pharmacological studies. The rats were allowed to continue to feed on their respective diets until the end of the study (16). […]
# The levels of insulin, sICAM-1, sVCAM-1, and E-selectin in serum were determined by using sandwich ELISA (R&D) according to manufacturer's protocols.
# [2] = Body weight in C57BL/KsJ-db/db diabetic mice; format: in vivo; conditions: 2 mg/kg/3 days i.p. for 30 days, compared with control group, after week 2
# Procedure: (§2) Male C57BL/KsJ-db/db mice (diabetic deficiency knockout mice) at 5 weeks of age (23 g) were fed a pelletized commercial chow diet for acclimation from the arrival for 2 weeks. […]. They were given free access to food and distilled water, and the food consumption and body weight gain were measured daily and weekly, respectively. […]; and (2) group 2 served as diabetic mice administered C70PLY4 (2 mg/kg/3 days) in aqueous suspension i.p. for 30 days (C70PLY4). […] The blood was centrifuged at 1000 g for 15 min at 4° C., and plasma and erythrocyte were separated. The livers and adipose tissues were removed, washed, weighted, and frozen at −70° C. until analyzed.
# [3] = molecular target: MD2/TLR4 interaction (Homo sapiens, UniProt O00206); test: In vitro protein competition binding assay for MD2/TLR4 interaction; conditions: MD2 50 nM
# Sequence of MD2/TLR4 interaction (O00206 24-631): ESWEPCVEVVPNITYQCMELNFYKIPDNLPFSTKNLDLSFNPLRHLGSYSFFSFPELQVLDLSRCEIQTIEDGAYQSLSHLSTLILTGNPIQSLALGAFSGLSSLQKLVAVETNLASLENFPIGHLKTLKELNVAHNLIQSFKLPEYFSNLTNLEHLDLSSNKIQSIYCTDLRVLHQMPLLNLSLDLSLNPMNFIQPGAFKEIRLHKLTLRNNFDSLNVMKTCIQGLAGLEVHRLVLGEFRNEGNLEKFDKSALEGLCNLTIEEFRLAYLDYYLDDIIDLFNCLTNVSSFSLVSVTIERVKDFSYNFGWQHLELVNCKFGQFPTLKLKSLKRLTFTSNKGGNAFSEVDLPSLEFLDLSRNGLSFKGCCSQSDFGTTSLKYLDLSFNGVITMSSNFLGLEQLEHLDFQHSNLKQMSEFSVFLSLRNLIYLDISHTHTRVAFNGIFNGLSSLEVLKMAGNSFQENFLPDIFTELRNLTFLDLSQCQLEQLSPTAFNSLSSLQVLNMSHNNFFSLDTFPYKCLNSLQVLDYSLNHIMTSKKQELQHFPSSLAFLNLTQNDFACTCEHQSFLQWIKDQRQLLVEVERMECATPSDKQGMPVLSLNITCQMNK
# Procedure: The recombinant TLR4 protein was diluted in PBS (2 μg/mL) and immobilized on a 96-well (100 ng/well) ELISA plate by incubation at 37° C. for 2 h. The wells were washed three times with PBS, followed by blocking with the addition of 300 μL 5% BSA in PBS at ambient temperature overnight. Then, the plate was rewashed three times with PBST before performed competition binding assay. The binding of MD2 (50 nM) to TLR4 was competed by adding various amounts (2-fold serial dilution from 50 μM to 3.05 nM) of C70PLY4, N35PLY4, or M50PLY4 peptide, and the residual binding was examined using anti-MD2 and anti-mouse-IgG-HRP antibodies diluted in 1% BSA as described in herein.
# [4] = Blood glucose level in C57BL/KsJ-db/db diabetic mice; format: in vivo; conditions: 2 mg/kg/3 days i.p. for 30 days, compared with control group, after week 2
# Procedure: as §2
# (§3) Blood Glucose Test Strips and Blood Glucose Monitoring System were used to determine whole blood glucose levels on a drop of tail blood collected between 10 am and midday. Glucose concentration was determined colorimetrically using a glucose oxidase/peroxidase reagent kit. Samples were incubated with 100 μl of assay reagent at 37° C. for 30 min and measured at 540 nm. Values were expressed in mg/dL.
# [5] = tested on: HUVECs; test: Cell apoptosis, TUNEL assay in HUVECs; format: cell-based, human; conditions: compared to control cells
# Procedure: (§4) Cell apoptosis was detected by using commercial terminal deoxynucleotidyl transferase-dUTP nick end labeling (TUNEL) and caspase-3 activity kits, i.e., Apo-BrdU in Situ DNA Fragmentation Assay Kit (BioVision) and NucView™ 488 Caspase-3 Enzyme Substrate (Biotium). In brief, after incubation with M199 media in the presence or absence of […] various PLY peptides, at 37° C., 5% CO2 for 1 hour, HUVECs were washed with PBS and fixed with fixation buffer on ice for 20 min. Cells were then soaked in 70% alcohol for 1 hr. After 2 times of wash by washing buffer, cells were incubated in DNA labeling solution for 60 min at 37° C. Cells were then treated with rinse buffer and incubated with antibody buffer for 30 min at room temperature. The cell nuclei were stained with propidium iodide for 30 min. Samples were observed by fluorescent microscopeand photographed charge-coupled device (CCD) camera.
# [6] = tested on: HUVECs; format: cell-based, human
# Procedure: Cell viability was detected by a methanethiosulfonate (MTS) assay. In brief, 2×10^4 HUVECs were seeded to a 48-well plates in 100 μl endothelial cell medium (ECM, ScienCell Research Laboratory, Cat. 1001, USA) per well and incubated for 24 hrs. The media was removed and the cells were then incubated with media having 2% fetal bovine serum (FBS), in the absence or presence of various peptides, such as PLY, PLY123, PLY4, C70PLY4 or N35PLY4, at a concentration of 1, 10 or 100 nM. After incubation for 18 hours, the media was removed and 20 μl MTS reagents (20%) were added to each well in the final volume of 100 μl and placed in incubator for 1 hours. The optical density was measured at 490 nm using a plate reader.
# [7] = tested on: HUVEC; conditions: treated for 1, 4 and 7 hours (FIG. 16)
# [8] = Blood glucose level in HFD-induced, STZ-injected type 2 diabetic rats; format: in vivo, Sprague-Dawley rats; conditions: STZ-injected HFD-fed rats, 2 mg/kg/3 days i.p. for 30 days, compared to STZ+vehicle
# Procedure: as §1
# as §3, with “Values were expressed in mg/dL.” left out
# [9] = tested on: caspase-3 activity in HUVECs; format: cell-based, human; conditions: compared to control cells
# Procedure: as §4
# As to caspase-3 activity assay, after variant peptide treatments, HUVECs were washed by PBS. Cells were then reacted with Caspase-3 Enzyme Substrate 1 mM for 30 min at room temperature. Cells were then observed by fluorescent microscopeand photographed CCD camera.
sequence,measurement,setting,value
QDLTAHFTTSIPLKGNVRNLSVKIRECTGLAWEWWRTVYEKTDLPLVRKRTISIWGTTLYPQVEDKVEND [C70PLY4],blood insulin levels,[1],increased blood insulin levels
same,body weight,[2],significantly decreases
same,concentration at which MD2 protein is completely competed away,[3]; TLR4-coated well,6.25 µM
same,blocking capability for MD2 and TLR4 protein interaction (in words),[3]; peptide 50 μM to 3.05 nM,dose-dependent blocking capability
same,blood glucose level,[4],significantly decreases
same,"apoptotic potential, TUNEL assay",[5],no apoptotic potential
same,toxicity to HUVECs (FIG. 15),"[6]; MTS assay, 1, 10 or 100 nM, statement for high concentration (100 nM)",no toxic effects
same,toxic effects to HUVECs at 100 nM or below,"[6]; MTS assays, 100 nM or below, data not shown",no toxic effects
same,cell morphology of HUVEC,[7],did not affect the cell morphology
same,blood glucose levels,[8],decreased blood glucose
same,"apoptotic potential, caspase-3 activity assay",[9],no apoptotic potential
